These results are taken from patent publication US9492471B2, “Methods of treating a disease or disorder associated with Bruton'S Tyrosine Kinase” (Celgene Avilomics Research, Inc., priority 2013, dated 2016).

Assay in all cases: HotSpot kinase profiling
Common to all, as to type: biochemical

For one test, the target named is T1, EPHA2 (Homo sapiens, UniProt P29317).
T1 construct: purchased Reaction Biology Corp
An outline of the steps:
(§1)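 Radio-isotope P81 filtration format. Substrate + required cofactors in reaction buffer, kinase added, 2 h RT. Stop, wash with 0.1% phosphoric acid, detect. % inhibition vs DMSO; mean of duplicates where repeated.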

The target of a further test is T2, HCK (Homo sapiens, UniProt P08631).
T2 construct: purchased Reaction Biology Corp
T2 sequence (P08631 whole entry): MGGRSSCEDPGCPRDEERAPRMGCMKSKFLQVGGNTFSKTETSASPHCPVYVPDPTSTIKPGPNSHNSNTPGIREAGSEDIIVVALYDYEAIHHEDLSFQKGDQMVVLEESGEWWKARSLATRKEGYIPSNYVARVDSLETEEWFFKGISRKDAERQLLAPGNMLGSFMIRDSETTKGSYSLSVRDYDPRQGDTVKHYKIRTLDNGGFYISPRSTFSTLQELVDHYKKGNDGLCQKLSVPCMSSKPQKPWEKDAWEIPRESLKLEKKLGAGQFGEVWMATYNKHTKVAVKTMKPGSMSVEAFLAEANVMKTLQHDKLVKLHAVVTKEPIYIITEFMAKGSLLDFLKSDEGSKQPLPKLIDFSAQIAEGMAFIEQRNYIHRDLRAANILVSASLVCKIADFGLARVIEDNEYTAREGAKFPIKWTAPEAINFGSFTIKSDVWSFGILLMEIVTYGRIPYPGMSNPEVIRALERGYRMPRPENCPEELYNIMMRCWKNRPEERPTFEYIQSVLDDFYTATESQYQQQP
An outline of the steps:
as §1

Another test concerns the target T3, PKA (Homo sapiens, UniProt P17612).
T3 construct: purchased Reaction Biology Corp
An outline of the steps: as §1

In a further test the target is T4, EPHB2 (Homo sapiens, UniProt P29323).
T4 construct: purchased Reaction Biology Corp
T4 sequence (P29323 19-1055): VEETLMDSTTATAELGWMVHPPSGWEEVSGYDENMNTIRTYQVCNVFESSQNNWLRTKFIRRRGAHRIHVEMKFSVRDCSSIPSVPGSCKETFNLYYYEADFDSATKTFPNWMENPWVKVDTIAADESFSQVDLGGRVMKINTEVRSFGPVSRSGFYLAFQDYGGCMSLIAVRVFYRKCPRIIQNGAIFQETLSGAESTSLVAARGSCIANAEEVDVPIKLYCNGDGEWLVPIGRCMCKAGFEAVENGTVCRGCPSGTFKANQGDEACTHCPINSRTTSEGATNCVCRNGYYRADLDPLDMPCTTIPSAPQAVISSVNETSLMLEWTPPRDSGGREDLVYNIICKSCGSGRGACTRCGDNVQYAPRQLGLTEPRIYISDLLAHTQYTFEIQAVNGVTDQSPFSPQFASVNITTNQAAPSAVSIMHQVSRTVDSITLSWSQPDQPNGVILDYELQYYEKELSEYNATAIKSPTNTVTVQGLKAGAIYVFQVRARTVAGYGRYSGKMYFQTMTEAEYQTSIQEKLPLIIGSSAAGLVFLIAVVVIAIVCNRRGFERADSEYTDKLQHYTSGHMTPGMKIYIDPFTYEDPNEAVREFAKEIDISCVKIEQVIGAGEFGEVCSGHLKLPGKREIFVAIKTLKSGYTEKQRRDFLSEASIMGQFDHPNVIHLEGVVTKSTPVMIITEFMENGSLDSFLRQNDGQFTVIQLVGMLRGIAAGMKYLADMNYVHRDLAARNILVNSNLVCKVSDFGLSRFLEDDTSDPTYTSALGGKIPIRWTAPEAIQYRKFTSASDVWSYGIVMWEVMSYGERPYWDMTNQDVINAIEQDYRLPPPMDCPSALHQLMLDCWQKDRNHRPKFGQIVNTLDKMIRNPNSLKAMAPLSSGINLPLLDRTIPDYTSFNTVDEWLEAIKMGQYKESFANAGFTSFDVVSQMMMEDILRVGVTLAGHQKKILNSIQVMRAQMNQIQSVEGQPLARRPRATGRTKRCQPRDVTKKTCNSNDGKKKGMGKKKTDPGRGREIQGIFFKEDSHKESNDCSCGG
The method, boiled down: as §1

The target in another test is T5, TSSK3/STK22C (Homo sapiens, UniProt Q96PN8).
T5 construct: purchased Reaction Biology Corp
T5 sequence (Q96PN8 1-268): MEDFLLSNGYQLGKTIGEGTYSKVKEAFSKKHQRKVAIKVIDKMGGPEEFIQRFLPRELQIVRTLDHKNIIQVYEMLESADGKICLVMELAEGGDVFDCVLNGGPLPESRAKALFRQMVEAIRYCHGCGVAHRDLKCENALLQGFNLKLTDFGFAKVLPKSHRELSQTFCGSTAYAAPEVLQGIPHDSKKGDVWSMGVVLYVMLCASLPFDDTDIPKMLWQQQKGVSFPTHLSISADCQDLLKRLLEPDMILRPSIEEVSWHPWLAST
An outline of the steps:
as §1

For the next test, the target named is T6, SGK3/SGKL (Homo sapiens, UniProt Q96BR1).
T6 construct: purchased Reaction Biology Corp
T6 sequence (Q96BR1 1-496): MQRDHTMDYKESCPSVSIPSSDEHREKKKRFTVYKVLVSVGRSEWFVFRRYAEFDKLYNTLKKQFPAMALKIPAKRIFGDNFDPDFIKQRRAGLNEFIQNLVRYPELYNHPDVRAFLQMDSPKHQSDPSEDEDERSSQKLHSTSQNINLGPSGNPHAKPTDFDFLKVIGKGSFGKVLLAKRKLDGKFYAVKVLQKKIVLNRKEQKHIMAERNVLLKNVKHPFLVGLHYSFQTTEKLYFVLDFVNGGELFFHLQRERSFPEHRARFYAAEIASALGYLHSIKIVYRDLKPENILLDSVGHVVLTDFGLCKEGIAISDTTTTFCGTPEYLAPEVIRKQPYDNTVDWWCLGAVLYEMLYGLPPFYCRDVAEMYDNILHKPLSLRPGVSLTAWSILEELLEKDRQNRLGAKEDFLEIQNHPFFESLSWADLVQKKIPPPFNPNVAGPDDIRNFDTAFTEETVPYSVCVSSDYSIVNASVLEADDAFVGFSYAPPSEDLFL
An outline of the steps: as §1

A further test has as its target T7, RIPK3 (Homo sapiens, UniProt Q9Y572).
T7 construct: purchased Reaction Biology Corp
The method, boiled down: as §1

Another test has as its target T8, HIPK2 (Homo sapiens, UniProt Q9H2X6).
T8 construct: purchased Reaction Biology Corp
The method, boiled down:
as §1

[1] abbreviates: read-out: % Enzyme Activity (relative to DMSO controls) Run 1.
The mark [2] stands for this setting: read-out: % Enzyme Activity (relative to DMSO controls) Run 2.

Read-outs that look alike come from different tables or passages of the source.

T7 sequence (Q9Y572 whole entry): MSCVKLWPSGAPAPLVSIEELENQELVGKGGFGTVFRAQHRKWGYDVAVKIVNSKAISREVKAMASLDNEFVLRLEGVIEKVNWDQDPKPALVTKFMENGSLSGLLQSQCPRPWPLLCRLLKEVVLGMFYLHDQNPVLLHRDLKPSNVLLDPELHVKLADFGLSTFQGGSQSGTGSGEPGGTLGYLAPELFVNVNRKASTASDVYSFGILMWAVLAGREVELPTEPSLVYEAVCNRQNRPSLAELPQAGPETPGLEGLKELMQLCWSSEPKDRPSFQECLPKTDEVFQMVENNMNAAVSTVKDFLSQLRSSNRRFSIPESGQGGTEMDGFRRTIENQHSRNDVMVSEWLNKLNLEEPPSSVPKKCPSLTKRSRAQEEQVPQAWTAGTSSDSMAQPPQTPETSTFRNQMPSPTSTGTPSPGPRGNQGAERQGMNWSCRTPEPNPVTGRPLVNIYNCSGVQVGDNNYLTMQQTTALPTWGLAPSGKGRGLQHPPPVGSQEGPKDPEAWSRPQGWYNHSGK
T1 sequence (P29317 24-976): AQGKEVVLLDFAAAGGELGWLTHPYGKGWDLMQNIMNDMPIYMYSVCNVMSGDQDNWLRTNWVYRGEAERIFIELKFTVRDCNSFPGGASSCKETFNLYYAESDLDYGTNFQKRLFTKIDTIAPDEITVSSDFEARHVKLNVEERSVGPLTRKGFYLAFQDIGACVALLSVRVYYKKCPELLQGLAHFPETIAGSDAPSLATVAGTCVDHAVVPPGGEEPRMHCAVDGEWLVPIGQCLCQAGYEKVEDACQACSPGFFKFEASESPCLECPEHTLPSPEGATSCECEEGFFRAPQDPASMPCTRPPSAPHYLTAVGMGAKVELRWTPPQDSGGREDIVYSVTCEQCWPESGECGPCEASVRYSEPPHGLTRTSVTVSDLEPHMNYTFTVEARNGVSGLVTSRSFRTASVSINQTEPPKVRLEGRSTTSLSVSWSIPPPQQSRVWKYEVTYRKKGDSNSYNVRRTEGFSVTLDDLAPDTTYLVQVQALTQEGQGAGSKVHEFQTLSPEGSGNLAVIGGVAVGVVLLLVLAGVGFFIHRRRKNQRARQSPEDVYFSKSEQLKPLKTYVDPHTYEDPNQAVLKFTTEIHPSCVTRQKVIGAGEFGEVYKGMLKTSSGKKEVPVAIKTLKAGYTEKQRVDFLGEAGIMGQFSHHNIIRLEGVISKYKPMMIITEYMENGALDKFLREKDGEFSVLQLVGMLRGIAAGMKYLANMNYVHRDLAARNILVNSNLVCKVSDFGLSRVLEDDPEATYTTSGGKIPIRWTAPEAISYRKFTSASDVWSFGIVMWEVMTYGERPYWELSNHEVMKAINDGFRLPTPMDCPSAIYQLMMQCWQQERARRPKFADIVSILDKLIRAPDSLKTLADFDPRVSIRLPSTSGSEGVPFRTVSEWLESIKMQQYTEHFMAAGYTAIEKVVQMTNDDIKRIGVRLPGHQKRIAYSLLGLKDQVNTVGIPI
T8 sequence (Q9H2X6 whole entry): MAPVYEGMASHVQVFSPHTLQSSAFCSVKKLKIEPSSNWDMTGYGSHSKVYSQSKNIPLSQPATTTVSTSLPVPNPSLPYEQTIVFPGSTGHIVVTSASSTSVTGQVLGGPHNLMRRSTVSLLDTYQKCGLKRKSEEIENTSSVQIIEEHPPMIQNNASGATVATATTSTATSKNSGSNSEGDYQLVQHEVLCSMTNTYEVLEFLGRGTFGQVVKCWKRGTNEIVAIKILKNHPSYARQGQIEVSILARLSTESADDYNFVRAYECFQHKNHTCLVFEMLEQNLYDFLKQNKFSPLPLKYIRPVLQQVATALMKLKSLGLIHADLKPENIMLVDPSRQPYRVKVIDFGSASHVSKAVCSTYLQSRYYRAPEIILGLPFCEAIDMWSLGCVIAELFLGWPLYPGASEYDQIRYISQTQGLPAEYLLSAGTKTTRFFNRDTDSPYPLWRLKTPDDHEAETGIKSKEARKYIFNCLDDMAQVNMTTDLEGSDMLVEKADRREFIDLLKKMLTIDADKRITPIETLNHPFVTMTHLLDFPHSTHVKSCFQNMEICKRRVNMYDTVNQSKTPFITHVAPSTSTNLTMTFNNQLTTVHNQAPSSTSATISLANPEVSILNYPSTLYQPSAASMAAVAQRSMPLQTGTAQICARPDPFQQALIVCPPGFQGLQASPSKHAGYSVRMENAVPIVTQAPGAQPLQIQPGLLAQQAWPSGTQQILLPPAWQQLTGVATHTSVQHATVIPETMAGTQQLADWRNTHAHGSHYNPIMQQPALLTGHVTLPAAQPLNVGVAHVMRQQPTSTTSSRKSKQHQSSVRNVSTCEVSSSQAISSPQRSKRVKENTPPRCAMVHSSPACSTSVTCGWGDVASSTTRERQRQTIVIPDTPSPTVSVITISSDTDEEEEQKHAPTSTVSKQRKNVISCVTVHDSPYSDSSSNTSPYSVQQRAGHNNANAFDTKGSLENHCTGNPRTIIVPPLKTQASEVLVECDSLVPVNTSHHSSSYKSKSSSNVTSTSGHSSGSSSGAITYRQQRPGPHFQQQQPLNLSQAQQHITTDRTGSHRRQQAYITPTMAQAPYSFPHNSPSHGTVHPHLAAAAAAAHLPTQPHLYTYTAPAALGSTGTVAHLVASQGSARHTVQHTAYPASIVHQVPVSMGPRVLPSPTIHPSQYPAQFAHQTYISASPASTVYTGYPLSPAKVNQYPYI

For orientation: inhibition means the relative decrease from the control value, in per cent. As for `C=CC(=O)Nc1cccc(Nc2nc(Nc3ccc(OCCOC)c(F)c3)ncc2F)c1` [Compound 2], the inhibition at 3 µM is 15.8% against EPHA2; 29.5% on HCK; 14.5% against PKA; -5.45% at EPHB2; -32.6% at TSSK3/STK22C; -2.42% on SGK3/SGKL. The inhibition at 3 µM on RIPK3 was -18.8%; at HIPK2, 2.82%. In addition, the remaining activity at 3 µM on EPHA2 (setting [1]) is 84.2%; at EPHA2 (setting [2]), 84.1%; on HCK (setting [1]), 72%; at HCK (setting [2]), 69%; at PKA (setting [1]), 85.8%; on PKA (setting [2]), 85.1%. Further, the remaining activity at 3 µM was found to be 104% on EPHB2 (setting [1]); 107% on EPHB2 (setting [2]); 133% on TSSK3/STK22C (setting [1]); 133% at TSSK3/STK22C (setting [2]); 99.5% on SGK3/SGKL (setting [1]); 105% on SGK3/SGKL (setting [2]). Further, the remaining activity at 3 µM is 117% at RIPK3 (setting [1]), 121% at RIPK3 (setting [2]), 95.8% at HIPK2 (setting [1]) and 98.6% at HIPK2 (setting [2]).
